# Laboratory results from patent publication US9924714B2, “Impregnatable matrix of plant, animal or synthetic origin or mixtures of same, containing a uniformly distributed antimicrobial compound, method for impregnating said matrix with a compound, and use thereof in the production of antimicrobial elements” (COMPAÑIA MINERA SAN GERONIMO, priority 2013, dated 2018).
# How the values were obtained:
# Assay type in all cases: cell-based
# [1] = tested on: Enterococcus faecium ISP133/04; assay: Disc growth inhibition halo test (Example 2)
# [2] = tested on: Escherichia coli ATCC25922; assay: Disc growth inhibition halo test (Example 2)
# [3] = tested on: Klebsiella pneumoniae ATCC4352; assay: Disc growth inhibition halo test (Example 2)
# [4] = tested on: Streptococcus pneumoniae ATCC14325; assay: Disc growth inhibition halo test (Example 2)
# [5] = tested on: Citrobacter freundii ISP1949/99; assay: Disc growth inhibition halo test (Example 2)
# [6] = tested on: Enterobacter aerogenes ATCC13048; assay: Disc growth inhibition halo test (Example 2)
# [7] = tested on: Streptococcus pyogenes ATCC2367; assay: Disc growth inhibition halo test (Example 2)
# [8] = tested on: Pseudomonas aeruginosa PAOI; assay: Disc growth inhibition halo test (Example 2)
# [9] = tested on: Acinetobacter baumanii UDP456; assay: Disc growth inhibition halo test (Example 2)
# [10] = tested on: Staphylococcus epidermidis ATCC25923; assay: Disc growth inhibition halo test (Example 2)
# [11] = tested on: Staphylococcus aureus ATCC25923; assay: Disc growth inhibition halo test (Example 2)
# [12] = tested on: Enterococcus faecalis ATCC29212; assay: Disc growth inhibition halo test (Example 2)
# 12 bacterial strains = assay: Antibacterial activity of four copper compounds, summary (Example 2); settings: discs 200-800 μg, summary in words
smiles,measurement,setting,value
"O=P([O-])([O-])[O-].[Cu+2].[Cu+2].[OH-] [Copper hydroxyphosphate compound (II), copper hydroxyphosphate (II)]",Growth inhibition zone,[1]; 200 μg on 5 mm disc,5.0 mm
same,Growth inhibition zone,[1]; 400 μg on 5 mm disc,5.0 mm
same,Growth inhibition zone,[1]; 600 μg on 5 mm disc,5.0 mm
same,Growth inhibition zone,[1]; 800 μg on 5 mm disc,5.0 mm
same,Growth inhibition zone,[2]; 200 μg on 5 mm disc,5.0 mm
same,Growth inhibition zone,[2]; 400 μg on 5 mm disc,5.0 mm
same,Growth inhibition zone,[2]; 600 μg on 5 mm disc,5.0 mm
same,Growth inhibition zone,[2]; 800 μg on 5 mm disc,5.0 mm
same,Growth inhibition zone,[3]; 200 μg on 5 mm disc,5.0 mm
same,Growth inhibition zone,[3]; 400 μg on 5 mm disc,5.0 mm
same,Growth inhibition zone,[3]; 600 μg on 5 mm disc,5.0 mm
same,Growth inhibition zone,[3]; 800 μg on 5 mm disc,5.0 mm
same,Growth inhibition zone,[4]; 200 μg on 5 mm disc,5.0 mm
same,Growth inhibition zone,[4]; 400 μg on 5 mm disc,5.0 mm
same,Growth inhibition zone,[4]; 600 μg on 5 mm disc,5.0 mm
same,Growth inhibition zone,[4]; 800 μg on 5 mm disc,5.0 mm
same,Growth inhibition zone,[5]; 200 μg on 5 mm disc,5.0 mm
same,Growth inhibition zone,[5]; 400 μg on 5 mm disc,5.0 mm
same,Growth inhibition zone,[5]; 600 μg on 5 mm disc,5.0 mm
same,Growth inhibition zone,[5]; 800 μg on 5 mm disc,5.0 mm
same,Growth inhibition zone,[6]; 200 μg on 5 mm disc,5.0 mm
same,Growth inhibition zone,[6]; 400 μg on 5 mm disc,5.0 mm
same,Growth inhibition zone,[6]; 600 μg on 5 mm disc,5.0 mm
same,Growth inhibition zone,[6]; 800 μg on 5 mm disc,5.0 mm
same,Growth inhibition zone,[7]; 200 μg on 5 mm disc,5.0 mm
same,Growth inhibition zone,[7]; 400 μg on 5 mm disc,5.0 mm
same,Growth inhibition zone,[7]; 600 μg on 5 mm disc,5.0 mm
same,Growth inhibition zone,[7]; 800 μg on 5 mm disc,8.6 ± 0.6 mm
same,Growth inhibition zone,[8]; 200 μg on 5 mm disc,5.0 mm
same,Growth inhibition zone,[8]; 400 μg on 5 mm disc,5.0 mm
same,Growth inhibition zone,[8]; 600 μg on 5 mm disc,5.0 mm
same,Growth inhibition zone,[8]; 800 μg on 5 mm disc,5.0 mm
same,Growth inhibition zone,[9]; 200 μg on 5 mm disc,5.0 mm
same,Growth inhibition zone,[9]; 400 μg on 5 mm disc,8.6 ± 0.6 mm
same,Growth inhibition zone,[9]; 600 μg on 5 mm disc,7.3 ± 2 mm
same,Growth inhibition zone,[9]; 800 μg on 5 mm disc,7.6 ± 2.3 mm
same,Growth inhibition zone,[10]; 200 μg on 5 mm disc,5.0 mm
same,Growth inhibition zone,[10]; 400 μg on 5 mm disc,5.0 mm
same,Growth inhibition zone,[10]; 600 μg on 5 mm disc,5.6 ± 0.5 mm
same,Growth inhibition zone,[10]; 800 μg on 5 mm disc,6.3 ± 1.1 mm
same,Growth inhibition zone,[11]; 200 μg on 5 mm disc,5.0 mm
same,Growth inhibition zone,[11]; 400 μg on 5 mm disc,5.0 mm
same,Growth inhibition zone,[11]; 600 μg on 5 mm disc,5.0 mm
same,Growth inhibition zone,[11]; 800 μg on 5 mm disc,5.0 mm
same,Growth inhibition zone,[12]; 200 μg on 5 mm disc,5.0 mm
same,Growth inhibition zone,[12]; 400 μg on 5 mm disc,5.0 mm
same,Growth inhibition zone,[12]; 600 μg on 5 mm disc,5.0 mm
same,Growth inhibition zone,[12]; 800 μg on 5 mm disc,5.0 mm
"[Cl-].[Cu+2].[Cu+2].[OH-].[OH-].[OH-] [copper oxychloride compound (II), copper oxychloride (II)]",Growth inhibition zone,[1]; 200 μg on 5 mm disc,6.0 ± 1.0 mm
same,Growth inhibition zone,[1]; 400 μg on 5 mm disc,6.0 ± 1.0 mm
same,Growth inhibition zone,[1]; 600 μg on 5 mm disc,6.0 ± 1.0 mm
same,Growth inhibition zone,[1]; 800 μg on 5 mm disc,6.0 ± 1.0 mm
same,Growth inhibition zone,[2]; 200 μg on 5 mm disc,13.3 ± 1.4 mm
same,Growth inhibition zone,[2]; 400 μg on 5 mm disc,13.0 ± 0.7 mm
same,Growth inhibition zone,[2]; 600 μg on 5 mm disc,15.0 ± 0.7 mm
same,Growth inhibition zone,[2]; 800 μg on 5 mm disc,13.3 ± 0.7 mm
same,Growth inhibition zone,[3]; 200 μg on 5 mm disc,7.3 ± 0.6 mm
same,Growth inhibition zone,[3]; 400 μg on 5 mm disc,8.7 ± 0.6 mm
same,Growth inhibition zone,[3]; 600 μg on 5 mm disc,9.7 ± 0.6 mm
same,Growth inhibition zone,[3]; 800 μg on 5 mm disc,10.0 mm
same,Growth inhibition zone,[4]; 200 μg on 5 mm disc,5.0 ± 1.0 mm
same,Growth inhibition zone,[4]; 400 μg on 5 mm disc,8.0 ± 0.7 mm
same,Growth inhibition zone,[4]; 600 μg on 5 mm disc,9.0 ± 1.0 mm
same,Growth inhibition zone,[4]; 800 μg on 5 mm disc,11.0 ± 1.2 mm
same,Growth inhibition zone,[5]; 200 μg on 5 mm disc,8.0 ± 1.0 mm
same,Growth inhibition zone,[5]; 400 μg on 5 mm disc,10.7 ± 1.5 mm
same,Growth inhibition zone,[5]; 600 μg on 5 mm disc,11.3 ± 0.6 mm
same,Growth inhibition zone,[5]; 800 μg on 5 mm disc,11.3 ± 1.5 mm
same,Growth inhibition zone,[6]; 200 μg on 5 mm disc,7.3 ± 1.5 mm
same,Growth inhibition zone,[6]; 400 μg on 5 mm disc,3.7 ± 1.5 mm
same,Growth inhibition zone,[6]; 600 μg on 5 mm disc,9.7 ± 0.6 mm
same,Growth inhibition zone,[6]; 800 μg on 5 mm disc,9.7 ± 1.5 mm
same,Growth inhibition zone,[7]; 200 μg on 5 mm disc,5.0 ± 1.0 mm
same,Growth inhibition zone,[7]; 400 μg on 5 mm disc,6.0 ± 1.0 mm
same,Growth inhibition zone,[7]; 600 μg on 5 mm disc,7.0 ± 1.2 mm
same,Growth inhibition zone,[7]; 800 μg on 5 mm disc,8.0 ± 1.4 mm
same,antibacterial activity,12 bacterial strains,"antibacterial activity against Staphylococcus aureus, Staphylococcus epidermidis, Streptococcus pyogenes, Escherichia coli and Acinetobacter baumannii"
same,Growth inhibition zone,[8]; 200 μg on 5 mm disc,6.3 ± 1.5 mm
same,Growth inhibition zone,[8]; 400 μg on 5 mm disc,6.7 ± 1.2 mm
same,Growth inhibition zone,[8]; 600 μg on 5 mm disc,8.3 ± 0.6 mm
same,Growth inhibition zone,[8]; 800 μg on 5 mm disc,3.3 ± 1.7 mm
same,Growth inhibition zone,[9]; 200 μg on 5 mm disc,11.7 ± 0.6 mm
same,Growth inhibition zone,[9]; 400 μg on 5 mm disc,15.7 ± 0.6 mm
same,Growth inhibition zone,[9]; 600 μg on 5 mm disc,17.0 ± 1.0 mm
same,Growth inhibition zone,[9]; 800 μg on 5 mm disc,19.7 ± 0.6 mm
same,Growth inhibition zone,[10]; 200 μg on 5 mm disc,12.0 ± 0.6 mm
same,Growth inhibition zone,[10]; 400 μg on 5 mm disc,14.3 ± 0.6 mm
same,Growth inhibition zone,[10]; 600 μg on 5 mm disc,13.7 ± 1.5 mm
same,Growth inhibition zone,[10]; 800 μg on 5 mm disc,14.6 ± 0.6 mm
same,Growth inhibition zone,[11]; 200 μg on 5 mm disc,6.0 ± 1.0 mm
same,Growth inhibition zone,[11]; 400 μg on 5 mm disc,10.3 ± 0.6 mm
same,Growth inhibition zone,[11]; 600 μg on 5 mm disc,11.7 ± 0.6 mm
same,Growth inhibition zone,[11]; 800 μg on 5 mm disc,14.0 ± 1.0 mm
same,Growth inhibition zone,[12]; 200 μg on 5 mm disc,6.0 ± 1.0 mm
same,Growth inhibition zone,[12]; 400 μg on 5 mm disc,6.0 ± 1.0 mm
same,Growth inhibition zone,[12]; 600 μg on 5 mm disc,6.0 ± 1.0 mm
same,Growth inhibition zone,[12]; 800 μg on 5 mm disc,6.0 ± 1.0 mm
